Experimental findings from publication PMC8830069, “Metallo-β-Lactamase Inhibitor Phosphonamidate Monoesters” (ACS Omega, 2022) are described below.

The structures appear in SMILES notation. Bounds are passed on as bounds.

In general, IC50 refers to the midpoint of a concentration-inhibition curve.

For one data set, the target named is NDM-1 (Klebsiella pneumoniae, UniProt C7C422). In words: MBL inhibition assay, purified NDM-1, imipenem hydrolysis at 300 nm. It is filed as biochemical. The conditions noted are these: for IC50 against purified NDM-1: imipenem reporter substrate, 10 nM enzyme, 2.5% DMSO, highest inhibitor concentration 800 μM, N.I. and P. not defined. As to the method: (§1) The inhibitory activities of 1a–h and 2 against the purified NDM-1, GIM-1, and VIM-2 enzymes were evaluated (IC50 data in Table 1). The inhibitory activity was measured by monitoring nitrocefin hydrolysis for VIM-2 and GIM-1 and that of imipenem for NDM-1[19] at λ 482 and 300 nm, respectively. […] This may indicate that unlike the sulfur of captopril, that of 1a and 2 might not coordinate the zinc ions in the active site. Alternatively, this may be a result of disulfide formation under the conditions of the enzyme assay. The hydrophobic 1f–h precipitated during the enzyme assay and their inhibitory activities could therefore not be reliably measured. This is not unusual as the binding cleft of MBL inhibitors is hydrophobic, and accordingly, their inhibitors typically have poor aqueous solubility.[20] The inhibitors may be solubilized by careful dilution of dimethylsulfoxide (DMSO) stock solutions; however, this was not successful for compounds 1f–h.
Chain of NDM-1 (C7C422 29-270 limits assumed): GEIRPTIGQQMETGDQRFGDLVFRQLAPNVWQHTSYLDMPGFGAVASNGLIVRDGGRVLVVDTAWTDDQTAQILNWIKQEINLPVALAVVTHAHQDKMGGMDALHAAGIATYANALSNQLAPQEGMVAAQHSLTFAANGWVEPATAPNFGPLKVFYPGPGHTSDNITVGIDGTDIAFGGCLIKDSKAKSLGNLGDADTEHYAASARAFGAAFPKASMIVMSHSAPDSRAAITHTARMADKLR
(§2) The inhibitory activity (IC50) of 1a–h was studied against the MBL enzymes NDM-1, GIM-1, and VIM-2. The buffer used for the studies contained 50 mM HEPES at pH 7.2, 10 μM ZnSO4, 2.5% DMSO, and 0.4 mg/mL bovine serum albumin, used as a prevention of protein unfolding and loss of activity. The enzyme concentration of NDM-1 was 10 nM, of GIM-1 1 nM, and of VIM-2 100 pM. The inhibitors were dissolved in 100% DMSO, and a twofold dilution series was made with a final 2.5% DMSO in the assay. The highest inhibitor concentration was 800 μM. The reporter substrate for VIM-2 and GIM-1 was nitrocefin, while for NDM-1 imipenem, and their absorbance (concentration) was followed at the wavelengths 482 and 300 nm, respectively. L-Captopril and EDTA-Na were used as positive and water and DMSO as negative controls. Measurements were read for 30 min at 298 K.

The target of another data set is GIM-1 (Pseudomonas aeruginosa, UniProt Q704V1). Put plainly: MBL inhibition assay, purified GIM-1, nitrocefin hydrolysis at 482 nm. The data set is classed as biochemical. The conditions noted are these: for IC50 against purified GIM-1: nitrocefin reporter substrate, 1 nM enzyme, 2.5% DMSO, highest inhibitor concentration 800 μM, N.I. and P. not defined. As to the method:
as §1, §2

A short description of another data set: in vitro. Particulars: human; cell viability after 24 hours incubation, at least two independent experiments; read-out: Cytotoxicity IC50 in HeLa cells. It is filed as cell-based. As to the method:
The cytotoxicity of phosphonamidate monoesters was evaluated against HeLa cells (ATCC-CCL-2), which were maintained in Dulbecco’s modified Eagle medium (Thermo Fisher Scientific) supplemented with 10% (v/v) fetal bovine serum (Thermo Fisher Scientific), penicillin (100 units/mL), and streptomycin (100 μg/mL, both from Sigma) at 37 °C, 5% CO2. Cells were seeded in 96-well plates (Corning, Merck) at 20 × 10^3 cells/well and incubated for 24 h (37 °C, 5% CO2). Stock solutions of the compounds were prepared at 150 mM in DMSO (Sigma), and the cells were exposed to a serial dilution and incubated for 24 h. Subsequently, the cells were washed twice with culture medium, and the PrestoBlue reagent (Thermo Fischer Scientific) was directly added to the cells for cell viability determination (1:10 dilution in culture medium). Following recommended incubation times (manufacturer’s instructions), fluorescence was measured using a Spark plate reader (Tecan, Austria) at Ex/Em 560/590 nm and corrected for background fluorescence by including control wells containing only cell culture media (no cells). Data analysis was performed using GraphPad Prism 9.0.0 (GraphPad Software, USA). At least two independent experiments were performed.
Figure S1. Cytotoxicity dose-response curves of phosphonamidate monoesters as determined in HeLa cells. The cells were treated with the compounds at the indicated concentrations, and cell viability was measured after 24 hours incubation. The following IC50 values wer e determined to be (A) 69. 2 µM (SD = 1.0) for KAT -A-109-H2, (B) 201.4 µM (SD = 4.4) for KAT -A-102-H1 and (C) 90.7 µM (SD = 1.0) for KAT -A-118-H1. All remaining compounds (D - H) had IC50 values above 500 µM. Data is shown as mean ± SD of at least two independent experiments.
*A 1h, B 1e, C 1f, D 1a, E 1b, F 1d, G 1c. […]

For the next data set, the target named is VIM-2 (Escherichia coli, UniProt Q5U7L7). Put plainly: MBL inhibition assay, purified VIM-2, nitrocefin hydrolysis at 482 nm. It is filed as biochemical. The conditions noted are these: for IC50 against purified VIM-2: nitrocefin reporter substrate, 100 pM enzyme, 2.5% DMSO, highest inhibitor concentration 800 μM, N.I. and P. not defined. As for the experimental part: as §1, §2

Data set [1] is described as follows: Solubility in the MIC assay. Particulars: Muller Hinton II broth. The data set is classed as physicochemical. As to the method:
(§3) The in vitro susceptibility of meropenem in combination with the different compounds was evaluated against E. coli expressing NDM-1 in a broth microdilution assay. A 96-well plate was prepared with the compounds in a twofold dilution series (final concentrations 1024–0.5 mg/L) in Muller Hinton II broth (MHB-II) in combination with 2, 4, or 8 mg/L meropenem. EDTA (100 μM) was used in combination with meropenem as control for inhibition of NDM-1. Three–five colonies of E. coli ATCC 25922 NDM-1 were suspended in 0.90% saline solution and adjusted to the 0.5 McFarland turbidity standard. The bacterial suspension was diluted in MHB-II and adjusted to a final inoculum of 5 × 10^5 CFU/mL.
Table S2. Susceptibility assay with E. coli ATCC 25922 NDM-1
Compound Minimum inhibitory concentration (mg/L)
Meropenem:compound ratio Meropenem

In the next data set the test system is E. coli ATCC 25922 NDM-1. It is filed as cell-based. The conditions noted are these: in combination with EDTA 100 μM (control for inhibition of NDM-1). As for the experimental part:
as §3

Chain of GIM-1 (Q704V1 entry or part of it): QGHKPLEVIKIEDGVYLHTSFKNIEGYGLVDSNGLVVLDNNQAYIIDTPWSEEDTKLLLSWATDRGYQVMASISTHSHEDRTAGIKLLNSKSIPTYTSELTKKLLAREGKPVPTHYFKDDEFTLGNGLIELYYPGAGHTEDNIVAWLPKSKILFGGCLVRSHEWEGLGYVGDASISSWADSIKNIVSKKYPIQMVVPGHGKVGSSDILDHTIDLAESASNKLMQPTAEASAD

Turning to `COP(=O)(CCSC(C)=O)N(C)Cc1ccccn1` (racemic) [1b, (R/S)-(2-(Methoxy(methyl(pyridin-2-ylmethyl)amino)phosphoryl)ethyl) Ethanethioate], the IC50 came to 356 µM against NDM-1 and 109 µM against GIM-1. Also, the IC50 at 24 h in “in vitro” was over 500 µM.

In the case of `CCO[P@](=O)([C@@H](CSC(C)=O)Cc1ccccc1)N(Cc1ccccn1)Cc1ccccn1` (racemic) [1h, S-((R/S)-2-((R/S)-(Bis(pyridin-2-ylmethyl)amino)(ethoxy)phosphoryl)-3-phenylpropyl) Ethanethioate], the “IC50 against purified NDM-1” value on NDM-1 was “P”. For the same molecule, the “IC50 against purified GIM-1” value at GIM-1 is on record as “P”. Moreover, the “IC50 against purified VIM-2” value at VIM-2 is “P”. In the data set “in vitro”, the IC50 was 69.2 µM.

For `COP(=O)(CCSC(C)=O)NCc1ccccn1` (racemic) [1a, (R/S)-(2-(Methoxy((pyridin-2-ylmethyl)amino)phosphoryl)ethyl) Ethanethioate], the “IC50 against purified NDM-1” value at NDM-1 is “N.I”. Further, the IC50 on GIM-1 was 86 µM. In addition, the “IC50 against purified VIM-2” value on VIM-2 is reported as “N.I”. Also, in “in vitro”, the IC50 at 24 h was over 500 µM.

`CCO[P@](=O)([C@@H](CSC(C)=O)Cc1ccccc1)N(C)Cc1ccccn1` (racemic) [1f, S-((R/S)-2-((R/S)-Ethoxy(methyl(pyridin-2-ylmethyl)amino)phosphoryl)-3-phenylpropyl) Ethanethioate]: the “IC50 against purified NDM-1” value at NDM-1 is recorded as “P”. In addition, the “IC50 against purified GIM-1” value against GIM-1 is given as “P”. Moreover, the “IC50 against purified VIM-2” value against VIM-2 was “P”. For the same molecule, the IC50 in “in vitro” amounted to 90.7 µM. Besides, the “Solubility in MIC assay” value in data set [1] is listed as “could not be dissolved”.

For the molecule `O=C(O)CN(CCN(CC(=O)O)CC(=O)O)CC(=O)O` [EDTA], in the data set on E. coli ATCC 25922 NDM-1, the “Minimum inhibitory concentration of meropenem” value is under 2 µg/mL.

For `CCO[P@@](=O)(N[C@@H](C(=O)OC)c1ccccc1)[C@@H](CSC(C)=O)Cc1ccccc1` (mixture of isomers) [1g, Methyl (R)-2-(((R/S)-((R/S)-1-(Acetylthio)-3-phenylpropan-2-yl) (ethoxy)phosphoryl)amino)-2-phenylacetate], on NDM-1, the “IC50 against purified NDM-1” value is “P”. At GIM-1, the “IC50 against purified GIM-1” value is on record as “P”. At VIM-2, the “IC50 against purified VIM-2” value is “P”. Moreover, the “Solubility in MIC assay” value in data set [1] is recorded as “could not be dissolved”.

Consider `CCOP(=O)(NCc1ccccn1)C(CSC(C)=O)Cc1ccccc1` (racemic) [1e, S-((R/S)-2-((R/S)-(2-(Ethoxy((pyridine-2-ylmethyl)amino)phosphoryl)-3-phenylpropyl) Ethanethioate], for which the “IC50 against purified NDM-1” value at NDM-1 was “N.I”. Further, the “IC50 against purified VIM-2” value against VIM-2 is reported as “N.I”. The IC50 in “in vitro” was 201 µM. Also, the “Solubility in MIC assay” value in data set [1] is “could not be dissolved”.

`COC(=O)[C@H](NP(=O)(CCSC(C)=O)OC)c1ccccc1` (mixture of isomers) [1c, Methyl (R)-2-(((R/S)-(2-(Acetylthio)ethyl) (methoxy)phosphoryl)amino)-2-phenylacetate]: the “IC50 against purified NDM-1” value against NDM-1 is “N.I”. Also, the “IC50 against purified GIM-1” value against GIM-1 was “N.I”. The IC50 at VIM-2 is 500 µM; in the data set “in vitro”, over 500 µM.

Regarding `COP(=O)(CCS)NCc1ccccn1` (centres unmarked) [compound 2], the “IC50 against purified NDM-1” value against NDM-1 was “N.I”. The “IC50 against purified GIM-1” value at GIM-1 is on record as “N.I”. Besides, the “IC50 against purified VIM-2” value against VIM-2 is recorded as “N.I”.
